Measurements reported in ChEMBL document CHEMBL1909046, “DrugMatrix in vitro pharmacology data”.

What was measured:
[1] = DRUGMATRIX: Glutamate, AMPA radioligand binding (ligand: [3H] AMPA); format: cell membranes, Rattus norvegicus, Wistar, Cerebral cortex, Membrane; conditions: Not Active = under 50% inhibition at 10 µM
[2] = target: Acetylcholinesterase (Homo sapiens, UniProt P22303); test: DRUGMATRIX: Acetylcholinesterase enzyme inhibition (substrate: acetylthiocholine); format: cell-based, HEK293; conditions: hek293; Not Active = under 50% inhibition at 10 µM
[3] = target: Platelet-activating factor receptor (Homo sapiens, UniProt P25105); format: tissue-based; note: in other assays of this panel Not Active means under 50% inhibition at 10 µM
[4] = target: T1, Muscarinic acetylcholine receptor M2 (Homo sapiens, UniProt P08172); format: cell membranes, CHO-K1, Membrane; conditions: cho-k1; note: in other assays of this panel Not Active means under 50% inhibition at 10 µM
T1 sequence (P08172 whole entry): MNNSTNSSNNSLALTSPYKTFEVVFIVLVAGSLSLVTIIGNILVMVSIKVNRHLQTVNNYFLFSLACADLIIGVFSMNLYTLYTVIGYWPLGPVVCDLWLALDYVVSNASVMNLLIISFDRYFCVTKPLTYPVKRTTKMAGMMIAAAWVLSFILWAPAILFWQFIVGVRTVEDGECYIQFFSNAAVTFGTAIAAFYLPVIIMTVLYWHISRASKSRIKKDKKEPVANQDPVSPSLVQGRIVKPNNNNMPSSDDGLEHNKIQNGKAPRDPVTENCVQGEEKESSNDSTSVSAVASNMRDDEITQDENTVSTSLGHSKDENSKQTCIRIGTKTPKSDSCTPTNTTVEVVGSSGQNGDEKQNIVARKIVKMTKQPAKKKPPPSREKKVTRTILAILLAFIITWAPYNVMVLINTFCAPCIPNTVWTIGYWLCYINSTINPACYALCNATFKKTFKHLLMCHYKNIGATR

[5] = target: cGMP-specific 3',5'-cyclic phosphodiesterase (Homo sapiens, UniProt O76074); test: DRUGMATRIX: Phosphodiesterase PDE5 enzyme inhibition (substrate: [3H]cGMP + cGMP); format: tissue-based, Platelet; conditions: Not Active = under 50% inhibition at 10 µM
[6] = target: Cannabinoid receptor 1 (Homo sapiens, UniProt P21554); format: cell membranes, Chem-1, Membrane; conditions: chem-1; note: in other assays of this panel Not Active means under 50% inhibition at 10 µM
[7] = target: 5-hydroxytryptamine receptor 1B (Rattus norvegicus, UniProt P28564); format: cell membranes, Wistar, Cerebral cortex, Membrane; note: in other assays of this panel Not Active means under 50% inhibition at 10 µM
Sequence of 5-hydroxytryptamine receptor 1B (P28564 whole entry): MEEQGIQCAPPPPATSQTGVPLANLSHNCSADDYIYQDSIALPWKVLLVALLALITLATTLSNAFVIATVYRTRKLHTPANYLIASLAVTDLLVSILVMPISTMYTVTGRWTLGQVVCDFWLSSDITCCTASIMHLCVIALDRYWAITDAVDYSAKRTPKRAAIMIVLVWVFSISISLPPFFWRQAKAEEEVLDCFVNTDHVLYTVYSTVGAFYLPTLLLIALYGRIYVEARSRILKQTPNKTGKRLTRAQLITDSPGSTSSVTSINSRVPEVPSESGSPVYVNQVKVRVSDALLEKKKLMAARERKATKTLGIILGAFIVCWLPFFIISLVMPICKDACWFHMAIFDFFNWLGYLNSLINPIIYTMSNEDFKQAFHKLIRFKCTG

Sequence of Platelet-activating factor receptor (P25105 whole entry): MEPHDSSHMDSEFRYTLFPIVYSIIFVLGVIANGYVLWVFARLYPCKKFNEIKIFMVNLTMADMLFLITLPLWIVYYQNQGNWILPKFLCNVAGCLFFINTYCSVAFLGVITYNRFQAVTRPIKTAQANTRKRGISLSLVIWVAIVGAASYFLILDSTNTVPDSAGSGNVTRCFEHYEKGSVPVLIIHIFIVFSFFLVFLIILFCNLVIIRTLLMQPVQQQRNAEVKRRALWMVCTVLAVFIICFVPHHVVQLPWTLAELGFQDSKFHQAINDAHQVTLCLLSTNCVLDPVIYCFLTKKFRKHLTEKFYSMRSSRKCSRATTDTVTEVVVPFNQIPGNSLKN
Sequence of Cannabinoid receptor 1 (P21554 whole entry): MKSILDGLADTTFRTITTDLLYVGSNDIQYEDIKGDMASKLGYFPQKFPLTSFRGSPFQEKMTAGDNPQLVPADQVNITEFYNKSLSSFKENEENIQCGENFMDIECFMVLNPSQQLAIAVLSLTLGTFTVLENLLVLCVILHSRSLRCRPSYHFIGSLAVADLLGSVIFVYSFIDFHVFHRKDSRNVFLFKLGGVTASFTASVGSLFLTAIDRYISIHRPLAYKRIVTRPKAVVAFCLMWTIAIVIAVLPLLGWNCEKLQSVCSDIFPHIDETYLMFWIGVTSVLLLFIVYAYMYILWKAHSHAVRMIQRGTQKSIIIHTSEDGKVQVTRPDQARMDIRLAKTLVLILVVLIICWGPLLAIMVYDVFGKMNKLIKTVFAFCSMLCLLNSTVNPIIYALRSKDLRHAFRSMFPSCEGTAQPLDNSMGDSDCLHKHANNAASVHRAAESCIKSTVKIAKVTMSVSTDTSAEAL
Sequence of Acetylcholinesterase (P22303 whole entry): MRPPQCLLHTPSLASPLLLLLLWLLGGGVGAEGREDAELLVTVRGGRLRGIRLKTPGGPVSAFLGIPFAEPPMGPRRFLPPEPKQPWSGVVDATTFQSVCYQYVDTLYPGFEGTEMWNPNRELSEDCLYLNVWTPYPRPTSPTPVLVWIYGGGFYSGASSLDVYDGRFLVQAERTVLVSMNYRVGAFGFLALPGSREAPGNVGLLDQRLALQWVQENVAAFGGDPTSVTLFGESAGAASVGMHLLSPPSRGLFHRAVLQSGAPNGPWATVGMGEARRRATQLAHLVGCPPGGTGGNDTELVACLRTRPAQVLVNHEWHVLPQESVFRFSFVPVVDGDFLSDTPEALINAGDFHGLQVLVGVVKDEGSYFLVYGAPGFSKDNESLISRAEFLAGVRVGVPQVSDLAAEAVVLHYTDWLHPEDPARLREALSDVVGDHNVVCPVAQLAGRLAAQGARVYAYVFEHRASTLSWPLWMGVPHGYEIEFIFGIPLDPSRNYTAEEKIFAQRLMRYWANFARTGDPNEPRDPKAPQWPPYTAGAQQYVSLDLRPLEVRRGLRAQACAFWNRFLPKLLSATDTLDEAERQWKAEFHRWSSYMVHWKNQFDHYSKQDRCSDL

Compound	IC50 [1]	Ki [1]	IC50 [2]	IC50 [3]	IC50 [4]	IC50 ([5]; platelet)	IC50 [6]	IC50 ([7]; read-out: IC50) [µM]	Ki ([7]; read-out: Ki) [µM]	IC50 [7]	IC50 ([5]; read-out: IC50) [µM]	Ki [2]	Ki [3]	Ki [4]	Ki ([5]; platelet)	Ki [6]	Ki [7]
CCN(CC)C(=S)SSC(=S)N(CC)CC	Not Active	Not Active	Not Active	Not Active	Not Active	Not Active	Not Active	4.72	2.15	–	–	–	–	–	–	–	–
Cc1ccc(Cl)c(Nc2ccccc2C(=O)O)c1Cl [MECLOFENAMIC ACID]	Not Active	Not Active	Not Active	Not Active	Not Active	Not Active	Not Active	–	–	Not Active	–	–	–	–	–	–	–
CC(C)(C)NC[C@H](O)COc1cccc2c1CCCC2=O [LEVOBUNOLOL]	Not Active	Not Active	Not Active	Not Active	Not Active	Not Active	Not Active	–	–	Not Active	–	–	–	–	–	–	–
Cc1cccc(C)c1NC(=O)C(C)N (stereo unspecified) [TOCAINIDE]	Not Active	Not Active	Not Active	Not Active	Not Active	Not Active	Not Active	–	–	Not Active	–	–	–	–	–	–	–
CCOc1cc(N)c(Cl)cc1C(=O)NCC1CN(Cc2ccc(F)cc2)CCO1 (stereo unspecified) [MOSAPRIDE]	Not Active	Not Active	Not Active	Not Active	Not Active	Not Active	Not Active	–	–	Not Active	–	–	–	–	–	–	–
Cc1cnc(NC(=O)C2=C(O)c3ccccc3S(=O)(=O)N2C)s1 [MELOXICAM]	Not Active	Not Active	Not Active	Not Active	Not Active	Not Active	Not Active	–	–	Not Active	–	–	–	–	–	–	–
O=C1CC[C@@]2(O)[C@H]3Cc4ccc(O)c5c4[C@@]2(CCN3CC2CC2)[C@H]1O5 [NALTREXONE]	Not Active	Not Active	Not Active	Not Active	Not Active	Not Active	Not Active	–	–	Not Active	–	–	–	–	–	–	–
O=C(c1ccccc1)c1ccc2n1CCC2C(=O)O (stereo unspecified) [KETOROLAC]	Not Active	Not Active	Not Active	Not Active	Not Active	Not Active	Not Active	–	–	Not Active	–	–	–	–	–	–	–
Oc1ccc(/C=C/c2cc(O)cc(O)c2)cc1 [RESVERATROL]	Not Active	Not Active	Not Active	Not Active	Not Active	Not Active	Not Active	–	–	Not Active	–	–	–	–	–	–	–
CN1C(=O)OC(C)(C)C1=O [TRIMETHADIONE]	Not Active	Not Active	Not Active	Not Active	Not Active	Not Active	Not Active	–	–	Not Active	–	–	–	–	–	–	–
Cc1[nH]c(=O)c(C#N)cc1-c1ccncc1 [MILRINONE]	Not Active	Not Active	Not Active	Not Active	Not Active	Not Active	Not Active	–	–	Not Active	–	–	–	–	–	–	–
C[C@]12CCC(=O)C[C@@H]1CC[C@@H]1[C@@H]2CC[C@]2(C)[C@@H](O)CC[C@@H]12 [STANOLONE]	Not Active	Not Active	Not Active	Not Active	Not Active	Not Active	Not Active	–	–	Not Active	–	–	–	–	–	–	–
CCN(CC)CCNC(=O)c1cc(Cl)c(N)cc1OC [METOCLOPRAMIDE]	Not Active	Not Active	Not Active	Not Active	Not Active	Not Active	Not Active	–	–	Not Active	–	–	–	–	–	–	–
COC(=O)Nc1nc2ccc(C(=O)c3ccccc3)cc2[nH]1 [MEBENDAZOLE]	Not Active	Not Active	Not Active	Not Active	Not Active	Not Active	Not Active	–	–	Not Active	–	–	–	–	–	–	–
O=[As][O-].[Na+] [SODIUM ARSENITE]	Not Active	Not Active	Not Active	Not Active	Not Active	Not Active	Not Active	–	–	Not Active	–	–	–	–	–	–	–
CS(=O)(=O)c1ccc(C2=C(c3ccccc3)C(=O)OC2)cc1 [ROFECOXIB]	Not Active	Not Active	Not Active	Not Active	Not Active	Not Active	Not Active	–	–	Not Active	–	–	–	–	–	–	–
CC1(C)[C@H](C(=O)O)N2C(=O)C[C@H]2S1(=O)=O [SULBACTAM]	Not Active	Not Active	Not Active	Not Active	Not Active	Not Active	Not Active	–	–	Not Active	–	–	–	–	–	–	–
CC(N)C12CC3CC(CC(C3)C1)C2 (stereo unspecified) [RIMANTADINE]	Not Active	Not Active	Not Active	Not Active	Not Active	Not Active	Not Active	–	–	Not Active	–	–	–	–	–	–	–
CC[C@H](C)C(=O)O[C@H]1CCC=C2C=C[C@H](C)[C@H](CC[C@@H]3C[C@@H](O)CC(=O)O3)[C@H]21 [MEVASTATIN]	Not Active	Not Active	Not Active	Not Active	Not Active	Not Active	Not Active	–	–	Not Active	–	–	–	–	–	–	–
O=C(OC[C@H]1O[C@@H](OC(=O)c2cc(O)c(O)c(OC(=O)c3cc(O)c(O)c(O)c3)c2)[C@H](OC(=O)c2cc(O)c(O)c(OC(=O)c3cc(O)c(O)c(O)c3)c2)[C@@H](OC(=O)c2cc(O)c(O)c(OC(=O)c3cc(O)c(O)c(O)c3)c2)[C@@H]1OC(=O)c1cc(O)c(O)c(OC(=O)c2cc(O)c(O)c(O)c2)c1)c1cc(O)c(O)c(OC(=O)c2cc(O)c(O)c(O)c2)c1 [TANNIC ACID]	Not Active	Not Active	Not Active	Not Active	Not Active	–	Not Active	–	–	Not Active	4.7	–	–	–	–	–	–
LEAD(IV) ACETATE	Not Active	Not Active	Not Active	Not Active	Not Active	Not Active	Not Active	–	–	Not Active	–	Not Active	Not Active	Not Active	Not Active	Not Active	Not Active
CO[C@@H]1[C@@H](OC)[C@H](C)[C@@](O)(CC(=O)O)O[C@H]1[C@H](C)[C@H]1O[C@@]2(CC[C@@](C)([C@H]3CC[C@@](C)([C@@H]4O[C@@H]([C@H]5O[C@](C)(O)[C@H](C)C[C@@H]5C)C[C@@H]4O[C@@H]4C[C@H](OC)[C@@H](OC)[C@H](C)O4)O3)O2)C[C@H](O)[C@H]1C.N [MADURAMICIN]	Not Active	Not Active	Not Active	Not Active	Not Active	Not Active	Not Active	–	–	Not Active	–	–	–	–	–	–	–
Cc1nnc(NS(=O)(=O)c2ccc(N)cc2)s1 [SULFAMETHIZOLE]	Not Active	Not Active	Not Active	Not Active	Not Active	Not Active	Not Active	–	–	Not Active	–	–	–	–	–	–	–
Cc1ccc(S(=O)(=O)NC(=O)NN2CCCCCC2)cc1 [TOLAZAMIDE]	Not Active	Not Active	Not Active	Not Active	Not Active	Not Active	Not Active	–	–	Not Active	–	–	–	–	–	–	–
CCC(C)(C)C(=O)O[C@H]1C[C@@H](C)C=C2C=C[C@H](C)[C@H](CC[C@@H]3C[C@@H](O)CC(=O)O3)[C@H]21 [SIMVASTATIN]	Not Active	Not Active	Not Active	Not Active	Not Active	Not Active	Not Active	–	–	Not Active	–	–	–	–	–	–	–
Cc1ccnc(NS(=O)(=O)c2ccc(N)cc2)n1 [SULFAMERAZINE]	Not Active	Not Active	Not Active	Not Active	Not Active	Not Active	Not Active	–	–	Not Active	–	–	–	–	–	–	–
OC[C@@H](O)[C@@H](O)[C@H](O)[C@H](O)CO [MANNITOL]	Not Active	Not Active	Not Active	Not Active	Not Active	Not Active	Not Active	–	–	Not Active	–	–	–	–	–	–	–
CCN(CC)N=O [N-NITROSODIETHYLAMINE]	Not Active	Not Active	Not Active	Not Active	Not Active	Not Active	Not Active	–	–	Not Active	–	–	–	–	–	–	–
